Results from patent publication US9975852B2, “Quinoline sulfonyl derivatives and uses thereof” (Health Sciences North Research Institute, priority 2013, dated 2018).

Tests used:
[1] = tested on: MCF7; experiment: SRB antiproliferative assay, MCF7; type: cell-based, human; settings: Homo sapiens
Method: Antiproliferative effects were determined by a sulforhodamine B (SRB) based protocol. For a typical screening experiment, 5,000-10,000 cells were inoculated into 100 μl medium per well of a 96-well microtiter plate as described previously. […] Some of the sample wells were fixed with 25 μl of 50% trichloroacetic acid (TCA) as a control of the cell population for each cell line at the time of drug addition (Tz). An aliquot of the frozen stock was thawed and diluted to the desired final maximum test-concentration with complete medium. Two to ten-fold serial dilutions were made to provide a total of seven drug concentrations (and a control [C]). Following addition of drugs, the culture plate was incubated for additional 48 h. Cells were fixed in situ by slowly adding 25 μl of ice-cold 50% (w/v) TCA (final concentration, 10% TCA), and were then incubated for 60 min at 4° C. The supernatant was discarded, and the plate was washed five times with tap water, followed by air-dry. 50 μl of SRB solution at 0.4% (w/v) in 1% acetic acid was added to each well, and the plate was incubated for >30 min at room temperature. Unbound SRB was removed by five washes with tap water, followed by air-drying. […] The relative growth rate (%) was calculated for each of the compound concentrations according to the following formula: (Ti−Tz)/(C−Tz)×100 In the formula, time zero (Tz), control growth (C), and OD for different concentration of tested compounds (Ti). The GI50 for each compound was obtained from a non-linear Sigmoidal dose-response (variable slope) curve which is fitted by GraphPad Prism™ v.4.03 software. Values were calculated for each of these parameters if the level of activity was reached. However, if the effect was not reached or was exceeded, the value for that parameter was expressed as greater or less than the maximum or minimum concentration tested. Flow Cytometry

[2] = tested on: HeLa; experiment: SRB antiproliferative assay, HeLa; type: cell-based; settings: Homo sapiens
Method: (§1) Antiproliferative effects were determined by a sulforhodamine B (SRB) based protocol. For a typical screening experiment, 5,000-10,000 cells were inoculated into 100 μl medium per well of a 96-well microtiter plate as described previously. Briefly, after the inoculation, the microtiter plate was incubated at 37° C., 5% CO2, 95% air and 100% relative humidity for 24 h, prior to addition of experimental drugs. Some of the sample wells were fixed with 25 μl of 50% trichloroacetic acid (TCA) as a control of the cell population for each cell line at the time of drug addition (Tz). An aliquot of the frozen stock was thawed and diluted to the desired final maximum test-concentration with complete medium. […] The cells “stained” with SRB were solubilized with 10 mM trizma base, and the absorbance was read on an automated plate reader at a wavelength of 515-564 nm. The relative growth rate (%) was calculated for each of the compound concentrations according to the following formula: (Ti−Tz)/(C−Tz)×100 In the formula, time zero (Tz), control growth (C), and OD for different concentration of tested compounds (Ti). […] Values were calculated for each of these parameters if the level of activity was reached. However, if the effect was not reached or was exceeded, the value for that parameter was expressed as greater or less than the maximum or minimum concentration tested. […]

[3] = tested on: U87MG; experiment: SRB antiproliferative assay, U87MG; type: cell-based; settings: Homo sapiens, U-87 MG
Method: as §1

[4] = biological target: T1, Chymotrypsin-like proteasome activity in HeLa S3 cell lysates (Homo sapiens, UniProt P28074); experiment: Proteasome activity assay, chymotrypsin-like; type: biochemical; settings: read-out: Inhibition (IC50) Chymotrypsin-like
T1 construct: proteasomes were extracted in 0.5% NP40 buffer; endogenous in cells; host or cells: HeLa S3
Method: Exponentially growing HeLa S3 cells were plated on 96-well plates. After overnight incubation, the cells were treated with different concentrations of drugs for 6 hours or left untreated (control). At the end of 6 hours, proteasomes were extracted in 0.5% NP40 buffer, and equal amounts of samples were incubated with 25 μM of fluorogenic substrates purchased from Boston Biochem (Cambridge Mass.). (LRR-specific for trypsin-like activity, LLE-specific for caspase-like activity and SUVY-specific for chymotrypsin like activity) in black-bottom 96-well plates at 37° C. Fluorescence was monitored every 5 min at the wavelength of 360 nm (excitation) and 480 nm (emission). Chymotrypsin activity was also determined by a kit-based method (similar to described above) purchased from Caymen Biochem (Ann Arbor, Mich.), using a fluorogenic substrate specific for chymotrypsin activity.
Analysis of proteasome activity in HeLa S3 cell lysates treated with various compounds (FIG. 10). VR-23 inhibits proteasome activity. 20S proteasome activity was inhibited by 1 μM VR-23. MG132 and EGCG, known proteasome inhibitors, were used as positive controls. The PC positive control is cell lysates prepared from Jurkat cells with a high proteasome activity. “Asynchr” denote asynchronous HeLa S3 cells grown in the absence of VR-23.

[5] = tested on: MCF7 cells; experiment: Flow cytometry, apoptosis of MCF7 cells; type: cell-based, human; settings: VR-23 2.7 or 8.0 μM, 48 hours
Method: Asynchronous MCF7 cells were incubated for 48 hours in the absence (Sham treated control) or presence of VR-23 at 2.7 or 8.0 μM. […] (Note the sub-G1 DNA profile that is typical for apoptotic cell death.) The profiles of flow cytometry are consistent with the cell images in the corresponding upper panels (FIG. 3).

[6] = tested on: Jurkat lymphoma cells; experiment: Flow cytometry, apoptosis of Jurkat lymphoma cells; type: cell-based; settings: 0.75 μM VR-23, 48 hours
Method: Asynchronously growing Jurkat lymphoma cells were incubated for 48 hours in the absence (sham control) or presence of Bortezomib alone or in combination with VR-23.

[7] = Body weight of ATH490 mice; type: in vivo; settings: VR-23 30 mg/kg
From the text: D0-D25/D29 denotes day 0 to days 25/29 post-drug treatment. […] The body weights of ATH490 mice are normalized on the basis that those of day 0 are 100%.

O=[N+]([O-])c1ccc(S(=O)(=O)N2CCN(c3ccnc4cc(Cl)ccc34)CC2)c([N+](=O)[O-])c1 [Compound 1, 7-Chloro-4-(4-(2,4-dinitrophenylsulfonyl)piperazin-1-yl)quinoline]
GI50 ([1]; MCF7, 48 h, read-out: GI50 MCF7): 2320 ± 800 nM | IC50 ([1]; MCF7, SRB): 2300 ± 800 nM | IC50 [2]: 4400 ± 3000 nM | IC50 [3]: 800 ± 100 nM | IC50 [4]: 100 nM | Apoptosis (sub-G1 DNA profile) [5]: caused apoptosis | Cell killing by apoptosis [6]: neither 6 nM of Bortezomib (FIG. 4, ii) nor 0.75 μM of VR-23 (FIG. 4, iv) induced substantial cell killing by apoptosis | Toxic effect by body weight [7]: did not show any notable toxic effect
